Our source for the inhibition and IC50 values is ChEMBL document CHEMBL3396964, “SAH derived potent and selective EZH2 inhibitors” (Bioorg Med Chem Lett, 2015).

SMILES strings stand for the structures. Active and inactive are the calls of the source. The rule behind the calls is not given here.

Assay [1] concerns the target T1, Histone-lysine N-methyltransferase SETD7 (Homo sapiens) (UniProt Q8WTS6).
T1 sequence (whole entry): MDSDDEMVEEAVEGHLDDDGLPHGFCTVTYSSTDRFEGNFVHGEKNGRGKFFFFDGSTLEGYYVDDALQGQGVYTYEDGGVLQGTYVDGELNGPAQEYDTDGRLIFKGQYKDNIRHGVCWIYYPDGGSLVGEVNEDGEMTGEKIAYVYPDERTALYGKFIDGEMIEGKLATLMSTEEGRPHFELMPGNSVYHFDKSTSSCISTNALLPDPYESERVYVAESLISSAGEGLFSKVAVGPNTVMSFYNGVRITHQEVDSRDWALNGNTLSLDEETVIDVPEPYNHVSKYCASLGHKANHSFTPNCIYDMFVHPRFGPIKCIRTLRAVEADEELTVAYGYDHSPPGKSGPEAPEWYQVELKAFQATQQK
Particulars: 10 uM.
Description: Inhibition of SETD7 (unknown origin) at 10 uM by HMT assay

The target of assay [2] is Histone-lysine N-methyltransferase EZH2 (Homo sapiens, UniProt O75530+Q09028+Q15022+Q15910, Y641N). Nature of the assay: Inhibition of N-terminally FLAG-tagged EZH2 Y641N mutant in EZH2/SUZ12/EED/RbAp48 complex (unknown origin) expressed in baculovirus infected in SF9 cells assessed as inhibition of methylation of nucleosomes at H3K27 by scintillation counting in presence of [3H]SAM.
Sequence of Histone-lysine N-methyltransferase EZH2 (Q15910 whole entry Y641N, one chain of several): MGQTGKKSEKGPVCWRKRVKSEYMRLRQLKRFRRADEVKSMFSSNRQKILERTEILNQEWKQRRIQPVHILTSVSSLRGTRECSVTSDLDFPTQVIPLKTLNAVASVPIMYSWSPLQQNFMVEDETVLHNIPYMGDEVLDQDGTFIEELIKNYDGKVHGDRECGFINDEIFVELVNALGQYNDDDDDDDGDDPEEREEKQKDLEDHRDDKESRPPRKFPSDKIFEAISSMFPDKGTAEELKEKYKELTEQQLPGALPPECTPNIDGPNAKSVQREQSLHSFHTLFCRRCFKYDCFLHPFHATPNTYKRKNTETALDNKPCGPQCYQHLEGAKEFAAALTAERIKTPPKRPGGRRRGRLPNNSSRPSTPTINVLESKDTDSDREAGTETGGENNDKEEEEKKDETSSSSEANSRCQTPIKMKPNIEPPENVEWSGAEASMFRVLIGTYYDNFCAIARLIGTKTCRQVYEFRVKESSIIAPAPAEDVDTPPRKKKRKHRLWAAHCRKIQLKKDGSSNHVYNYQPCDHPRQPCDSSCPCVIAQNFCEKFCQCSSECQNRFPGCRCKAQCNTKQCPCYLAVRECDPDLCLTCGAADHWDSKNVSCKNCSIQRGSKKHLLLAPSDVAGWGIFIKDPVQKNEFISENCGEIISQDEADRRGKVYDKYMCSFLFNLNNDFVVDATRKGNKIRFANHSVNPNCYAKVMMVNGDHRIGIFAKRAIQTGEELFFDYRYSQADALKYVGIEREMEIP

Assay [3] addresses T2, Histone-lysine N-methyltransferase EZH1 (Homo sapiens, UniProt Q92800).
T2 sequence (Q92800 whole entry): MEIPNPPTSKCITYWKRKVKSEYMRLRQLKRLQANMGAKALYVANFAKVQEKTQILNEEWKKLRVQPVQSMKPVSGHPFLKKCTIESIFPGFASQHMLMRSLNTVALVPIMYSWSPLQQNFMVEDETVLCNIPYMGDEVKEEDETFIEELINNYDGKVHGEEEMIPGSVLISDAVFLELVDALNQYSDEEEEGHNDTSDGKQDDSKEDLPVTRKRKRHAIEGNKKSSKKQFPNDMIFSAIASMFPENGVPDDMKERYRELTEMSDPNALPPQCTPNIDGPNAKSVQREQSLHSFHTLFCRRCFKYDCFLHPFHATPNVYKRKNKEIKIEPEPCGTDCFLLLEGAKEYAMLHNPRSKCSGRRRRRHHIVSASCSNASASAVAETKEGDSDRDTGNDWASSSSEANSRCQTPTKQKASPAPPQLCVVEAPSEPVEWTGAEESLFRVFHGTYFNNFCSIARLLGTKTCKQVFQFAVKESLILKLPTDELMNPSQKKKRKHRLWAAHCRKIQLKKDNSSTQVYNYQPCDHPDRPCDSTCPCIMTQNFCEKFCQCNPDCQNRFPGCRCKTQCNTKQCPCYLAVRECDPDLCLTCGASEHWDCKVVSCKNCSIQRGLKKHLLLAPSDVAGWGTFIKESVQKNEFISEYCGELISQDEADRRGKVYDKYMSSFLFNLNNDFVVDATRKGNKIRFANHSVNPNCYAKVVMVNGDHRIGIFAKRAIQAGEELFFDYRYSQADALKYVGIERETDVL
Nature of the assay: Inhibition of EZH1 (unknown origin) by HMT assay.

Assay [4] deals with Histone-lysine N-methyltransferase SETDB1 (Homo sapiens, UniProt Q15047). Particulars: 10 uM.
Description: Inhibition of SETDB1 (unknown origin) at 10 uM by HMT assay
Assay [5] addresses N-lysine methyltransferase SMYD2 (Homo sapiens, UniProt Q9NRG4). Nature of the assay: Inhibition of SMYD2 (unknown origin) at 10 uM by HMT assay.
Assay [6] has as its target Histone-lysine N-methyltransferase SUV39H2 (Homo sapiens, UniProt Q9H5I1). Briefly: Inhibition of SUV39H2 (unknown origin) at 10 uM by HMT assay.

One may read the inhibition as the share of the control response that was lost under treatment. The term IC50 denotes the concentration at which inhibition is half-maximal.

Sequence of Histone-lysine N-methyltransferase SUV39H2 (Q9H5I1 whole entry): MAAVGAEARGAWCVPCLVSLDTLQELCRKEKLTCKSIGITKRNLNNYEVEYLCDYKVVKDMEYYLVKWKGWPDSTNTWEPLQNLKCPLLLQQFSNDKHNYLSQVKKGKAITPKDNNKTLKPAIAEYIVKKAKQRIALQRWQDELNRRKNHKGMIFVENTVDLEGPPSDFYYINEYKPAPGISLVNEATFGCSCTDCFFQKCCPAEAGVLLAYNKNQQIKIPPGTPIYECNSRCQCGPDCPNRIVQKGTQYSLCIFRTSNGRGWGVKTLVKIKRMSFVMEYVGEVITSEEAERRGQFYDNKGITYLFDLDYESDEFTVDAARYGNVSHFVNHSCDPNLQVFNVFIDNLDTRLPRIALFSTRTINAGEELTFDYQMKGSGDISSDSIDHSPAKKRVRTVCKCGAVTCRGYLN
Sequence of N-lysine methyltransferase SMYD2 (Q9NRG4 whole entry): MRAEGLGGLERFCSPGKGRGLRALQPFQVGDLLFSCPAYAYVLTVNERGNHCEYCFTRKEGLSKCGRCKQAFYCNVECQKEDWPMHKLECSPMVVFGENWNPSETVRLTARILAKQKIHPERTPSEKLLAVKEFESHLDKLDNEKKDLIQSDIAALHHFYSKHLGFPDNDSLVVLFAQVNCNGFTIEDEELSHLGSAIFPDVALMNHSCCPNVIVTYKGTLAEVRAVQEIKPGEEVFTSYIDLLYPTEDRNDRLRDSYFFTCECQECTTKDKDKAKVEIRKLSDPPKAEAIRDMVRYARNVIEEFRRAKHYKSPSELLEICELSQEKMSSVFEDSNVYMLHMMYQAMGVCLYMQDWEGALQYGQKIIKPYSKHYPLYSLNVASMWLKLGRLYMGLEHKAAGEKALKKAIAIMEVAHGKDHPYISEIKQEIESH

On to `Nc1ncnc2c1ncn2[C@@H]1O[C@H](CSCC[C@H](N)C(=O)NCc2cc(-c3ccccc3)[nH]n2)[C@@H](O)[C@H]1O`, for which the inhibition entry in assay [1], in assay [4] and in assay [5] was “inactive” throughout. Further, the IC50 in assay [2] was found to be 70 nM; in assay [3], 2100 nM. Moreover, the inhibition in assay [6] stood at 20%.
